# Assay results published in ChEMBL document CHEMBL1150559 (Bioorg Med Chem Lett, 1997).
# What was measured:
# Substance-P receptor [1] = target: Substance-P receptor (Cavia porcellus, UniProt P30547); experiment: Antagonism of the guinea pig tachykinin NK1 receptor; type: functional
# Histamine H1 receptor [2] = target: T1, Histamine H1 receptor (Homo sapiens, UniProt P35367); type: functional
# Histamine H1 receptor [3] = target: T1, Histamine H1 receptor; experiment: Compound was evaluated for the antagonistic activity against H1 receptor; type: functional
# Substance-P receptor [4] = target: Substance-P receptor (Homo sapiens, UniProt P25103); experiment: Compound was evaluated for the antagonistic activity against NK1 receptor; type: functional
# Substance-K receptor = target: T2, Substance-K receptor (Homo sapiens, UniProt P21452); experiment: Compound was evaluated for the antagonistic activity against Tachykinin receptor 2; type: functional
# T2 sequence (P21452 whole entry): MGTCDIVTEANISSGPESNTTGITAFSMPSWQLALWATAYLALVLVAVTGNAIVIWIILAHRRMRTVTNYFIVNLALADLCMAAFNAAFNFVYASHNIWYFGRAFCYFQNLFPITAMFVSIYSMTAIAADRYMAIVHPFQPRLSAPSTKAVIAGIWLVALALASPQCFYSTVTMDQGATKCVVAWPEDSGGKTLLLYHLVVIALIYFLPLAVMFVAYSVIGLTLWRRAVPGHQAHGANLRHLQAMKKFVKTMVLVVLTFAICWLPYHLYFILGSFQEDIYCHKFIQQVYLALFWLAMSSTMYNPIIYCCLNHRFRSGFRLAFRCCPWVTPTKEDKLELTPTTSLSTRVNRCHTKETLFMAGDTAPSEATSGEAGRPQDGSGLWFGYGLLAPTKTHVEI
# [5] = Compound was tested for its solubility at pH 7.4; type: physicochemical; settings: buffer
# Cavia porcellus [6] = species on record: Cavia porcellus; experiment: Compound with maleate salt was tested for inhibition of histamine-induced skin wheal response in guinea pigs; type: functional
# Cavia porcellus [7] = species on record: Cavia porcellus; experiment: Inhibition of histamine-induced contraction of guinea pig ileum in a concentration-dependent fashion; type: functional; settings: read-out: pA2 (converted)
# [8] = Dose-dependent inhibition of SP-induced increases in phosphatidylinositol turnover in UC11 cells; type: functional, cell-based; settings: Homo sapiens, read-out: pA2 (converted)
# [9] = Compound was calculated log P; settings: pH 7.4
# Sequence of Substance-P receptor (Cavia porcellus, UniProt P30547) (P30547 whole entry): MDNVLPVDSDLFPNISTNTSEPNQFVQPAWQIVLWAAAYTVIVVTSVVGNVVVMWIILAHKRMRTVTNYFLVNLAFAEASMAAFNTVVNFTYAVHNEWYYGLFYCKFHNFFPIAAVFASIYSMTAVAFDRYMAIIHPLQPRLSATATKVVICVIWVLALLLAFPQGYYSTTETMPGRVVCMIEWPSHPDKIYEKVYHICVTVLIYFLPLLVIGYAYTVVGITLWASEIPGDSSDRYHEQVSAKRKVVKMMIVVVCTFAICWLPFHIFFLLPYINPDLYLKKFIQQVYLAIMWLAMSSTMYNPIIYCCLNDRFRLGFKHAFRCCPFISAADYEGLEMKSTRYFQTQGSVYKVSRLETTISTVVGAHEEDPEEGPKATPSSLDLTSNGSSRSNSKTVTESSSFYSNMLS
# T1 sequence (P35367 whole entry): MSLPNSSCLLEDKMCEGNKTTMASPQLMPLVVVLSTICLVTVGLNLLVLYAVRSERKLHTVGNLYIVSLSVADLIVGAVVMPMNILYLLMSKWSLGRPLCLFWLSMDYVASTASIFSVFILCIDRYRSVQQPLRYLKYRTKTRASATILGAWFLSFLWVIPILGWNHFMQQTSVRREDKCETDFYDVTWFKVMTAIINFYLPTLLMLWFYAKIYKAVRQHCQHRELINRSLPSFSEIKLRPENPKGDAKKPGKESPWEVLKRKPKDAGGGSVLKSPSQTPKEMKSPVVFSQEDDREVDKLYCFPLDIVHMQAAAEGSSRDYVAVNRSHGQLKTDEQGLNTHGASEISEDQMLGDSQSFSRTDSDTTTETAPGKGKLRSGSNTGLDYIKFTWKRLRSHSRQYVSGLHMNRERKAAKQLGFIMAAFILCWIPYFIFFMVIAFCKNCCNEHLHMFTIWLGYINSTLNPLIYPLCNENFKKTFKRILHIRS
# Sequence of Substance-P receptor (Homo sapiens, UniProt P25103) (P25103 whole entry): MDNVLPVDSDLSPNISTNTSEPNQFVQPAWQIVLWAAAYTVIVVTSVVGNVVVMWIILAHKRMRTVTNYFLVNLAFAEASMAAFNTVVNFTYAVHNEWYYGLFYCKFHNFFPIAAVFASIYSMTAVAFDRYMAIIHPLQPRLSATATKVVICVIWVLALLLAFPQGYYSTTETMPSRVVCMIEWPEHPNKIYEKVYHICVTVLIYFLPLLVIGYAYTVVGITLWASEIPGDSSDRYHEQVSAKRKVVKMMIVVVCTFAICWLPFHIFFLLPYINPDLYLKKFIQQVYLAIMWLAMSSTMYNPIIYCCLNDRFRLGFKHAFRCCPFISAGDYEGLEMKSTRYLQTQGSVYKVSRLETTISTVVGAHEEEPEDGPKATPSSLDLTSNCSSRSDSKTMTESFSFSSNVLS
Compound,IC50 (Substance-P receptor [1]),IC50 (Histamine H1 receptor [2]),further results
COc1cc(C(=O)N2CCC(CCN3CCC(C(=O)c4nc5ccccc5n4Cc4ccc(F)cc4)CC3)(c3ccc(F)cc3F)C2)cc(OC)c1OC (centres undefined),296 nM,–,–
COC(=O)c1ccccc1OCCCn1c(C(=O)C2CCN(CCC3(c4ccccc4)CCN(C(=O)c4cc(OC)c(OC)c(OC)c4)C3)CC2)nc2ccccc21 (centres undefined),16 nM,994 nM,–
CCOCCn1c(C(=O)C2CCN(CCC3(c4ccccc4)CCN(C(=O)c4cc(OC)c(OC)c(OC)c4)C3)CC2)nc2ccccc21 (centres undefined),26 nM,–,–
COC(=O)c1ccc(Cn2c(C(=O)C3CCN(CCC4(c5ccccc5)CCN(C(=O)c5cc(OC)c(OC)c(OC)c5)C4)CC3)nc3ccccc32)cc1 (centres undefined),23 nM,1210 nM,–
COc1cc(C(=O)N2CCC(CCN3CCC(C(=O)c4nc5ccccc5n4CCOCc4ccco4)CC3)(c3ccccc3)C2)cc(OC)c1OC (centres undefined),12 nM,446 nM,–
COc1cc(C(=O)N2CCC(CCN3CCC(C(=O)c4nc5ccccc5n4Cc4cccnc4)CC3)(c3ccccc3)C2)cc(OC)c1OC (centres undefined),27 nM,–,–
COc1cc(C(=O)N2CC[C@](CCN3CCC(C(N)=O)(c4ccccc4)CC3)(c3ccc(Cl)c(Cl)c3)C2)cc(OC)c1OC,–,–,IC50 (Histamine H1 receptor [3]): 10000 nM; IC50 (Substance-P receptor [4]): 3 nM; IC50 (Substance-K receptor): 8 nM
COc1cc(C(=O)N2CCC(CCN3CCC(C(=O)c4nc5ccccc5n4Cc4ccc(F)cc4)CC3)(c3ccc(Cl)c(Cl)c3)C2)cc(OC)c1OC (centres undefined),92 nM,124 nM,–
COc1cc(C(=O)N2CCC(CCN3CCC(C(=O)c4nc5ccccc5[nH]4)CC3)(c3ccccc3)C2)cc(OC)c1OC (centres undefined),36 nM,–,–
COc1cc(C(=O)N2CCC(CCN3CCC(C(=O)c4nc5ccccc5n4Cc4ccncc4)CC3)(c3ccccc3)C2)cc(OC)c1OC (centres undefined),37 nM,–,–
COc1ccc(C2(CCN3CCC(C(=O)c4nc5ccccc5n4Cc4ccccn4)CC3)CCN(C(=O)c3cc(OC)c(OC)c(OC)c3)C2)cc1 (centres undefined),42 nM,–,–
COc1cc(C(=O)N2CCC(CCN3CCC(C(=O)c4nc5ccccc5n4Cc4ccc(F)cc4)CC3)(c3ccccc3)C2)cc(OC)c1OC (centres undefined),34 nM,–,–
COc1cc(C(=O)N2CCC(CCN3CCC(C(=O)c4nc5ccccc5n4Cc4ccccn4)CC3)(c3ccc(Cl)c(Cl)c3)C2)cc(OC)c1OC (centres undefined),32 nM,–,–
COc1cc(C(=O)N2CCC(CCN3CCC(C(=O)c4nc5ccccc5n4Cc4ccc(C(=O)O)cc4)CC3)(c3ccccc3)C2)cc(OC)c1OC (centres undefined),36 nM,3420 nM,–
COc1cc(C(=O)N2CCC(CCN3CCC(C(=O)c4nc5ccccc5n4CCCOc4ccccc4C(=O)O)CC3)(c3ccccc3)C2)cc(OC)c1OC (centres undefined),27 nM,9450 nM,–
COc1ccc(C2(CCN3CCC(C(=O)c4nc5ccccc5n4Cc4ccc(F)cc4)CC3)CCN(C(=O)c3cc(OC)c(OC)c(OC)c3)C2)cc1OC (centres undefined),–,309 nM,solubility [5]: < 0.1 µg/mL; ED50 (Cavia porcellus [6]): 18.9 mg/kg; Kb (Cavia porcellus [7]): 30.2 nM; Kb [8]: 66.1 nM; logP [9]: 4.72
COc1cc(C(=O)N2CCC(CCN3CCC(C(=O)c4nc5ccccc5n4Cc4ccc(F)cc4)CC3)(c3ccc(C(F)(F)F)cc3)C2)cc(OC)c1OC (centres undefined),117 nM,–,–
COc1ccc(CCN2CCC(C(=O)c3nc4ccccc4n3Cc3ccc(F)cc3)CC2)cc1,–,–,IC50 (Substance-P receptor [4]): 5200 nM; IC50 (Substance-K receptor): 3390 nM
COc1cc(C(=O)N2CCC(CCN3CCC(C(=O)c4nc5ccccc5n4Cc4ccco4)CC3)(c3ccccc3)C2)cc(OC)c1OC (centres undefined),21 nM,–,–
COc1cc(C(=O)N2CCC(CCN3CCC(C(=O)c4nc5ccccc5n4Cc4ccccn4)CC3)(c3ccccc3)C2)cc(OC)c1OC (centres undefined),27 nM,–,solubility [5]: 38 µg/mL; ED50 (Cavia porcellus [6]): 10.3 mg/kg; logP [9]: 3.22
COc1ccccc1CN[C@H]1C2CCN(CC2)[C@H]1C(c1ccccc1)c1ccccc1 [CP-96345],–,~10000 nM,–
CC(C)(C)c1ccc(C(O)CCCN2CCC(C(O)(c3ccccc3)c3ccccc3)CC2)cc1 (centres undefined) [TERFENADINE],> 10000 nM,–,–
